Reference: ChEMBL document CHEMBL4602605, “Fluoroquinolones structural and medicinal developments (2013-2018): Where are we now?” (Bioorg Med Chem, 2019)
Converted amounts (≈) assume the structure as drawn.

Tested on: Mycobacterium tuberculosis
Assay: Antimicrobial activity against rifampin and isoniazid resistant Mycobacterium tuberculosis Beijing harboring rpoB Ser 531-Leu 315 and katC Ser-Thr mutant incubated for 10 days by microbroth dilution method
Assay type: functional

Compound `CCOc1cccc2cc(-c3cc4c(cc3F)c(=O)c(C(=O)O)cn4CC)c(=O)oc12` has an MIC of 1.5 µg/mL (≈ 3.54 µM).

`CCn1cc(C(=O)O)c(=O)c2cc(F)c(-c3cc4cc(C(C)(C)C)cc(C(C)(C)C)c4oc3=O)cc21` was tested, and the MIC was 3.1 µg/mL (≈ 6.31 µM).

In the case of `CCn1cc(C(=O)O)c(=O)c2cc(F)c(-c3cc4cc(Br)ccc4oc3=O)cc21`, the MIC is reported as 6.2 µg/mL (≈ 13.5 µM).
